Reference: patent US9580444B2, “Polycyclic pyrazolinone derivative and herbicide comprising same as effective component thereof” (priority 2013, dated 2017)

Assays:
Type in all cases: in vivo
[1] = test system: Abutilon theophrasti (velvetleaf); test: Test Example-4: herbicidal effect by a foliage treatment after weeds are generated under upland field conditions; details: 500 g a.i/ha, foliage treatment after emergence, about 14 days after treatment, score 0-5
Text: (§1) Using the formulation prepared according to the methods described above, the herbicidal effect of the bicyclic pyrazolinone derivative of the invention according to the methods shown in Test Examples below was examined. The herbicidal effect with respect to the test weeds or the phytotoxicity with respect to the test crops was examined according to the following criteria, and evaluated in six stage scores of 0 to 5. A vat having an area of 65 cm^2 and a depth of 2 cm was filled with upland soil, then, seeds of Amaranthus viridis (green amaranthus), Abutilon theophrasti (velvetleaf), Chenopodium album (common lambsquarters), […]. While watering was suitably performed on there, the seeds were grown for 14 days. A wettable powder or an emulsifiable concentrate of the compound of the present invention prepared according to Formulation Example was diluted, and a spray treatment was uniformly performed on the foliage portion of the plant so as to be a predetermined dosage in the amount of water of 4000 L per hectare. The herbicidal effect with respect to the test weeds and the phytotoxicity with respect to corn about 14 days after the treatment were evaluated according to the evaluation criteria in six stages of 0 to 5 described above.

[2] = test system: Amaranthus viridis (green amaranthus); test: as above; details: 500 g a.i/ha, foliage treatment after emergence, about 14 days after treatment, score 0-5
Text: as §1

[3] = test system: Chenopodium album (common lambsquarters); test: as above; details: 500 g a.i/ha, foliage treatment after emergence, about 14 days after treatment, score 0-5
Text: as §1

[4] = test system: corn; test: Test Example-4: phytotoxicity by a foliage treatment after weeds are generated under upland field conditions; details: 500 g a.i/ha, foliage treatment after emergence, about 14 days after treatment, score 0-5
Text: as §1

[5] = test system: Eleocharis acicularis (needle spikerush); test: Test Example-1: herbicidal effect by a treatment before weeds are generated under submerged conditions; details: 500 g a.i/ha, pre-emergence treatment, about 15 days after treatment, score 0-5
Summary of the method: (§2)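 Weed seeds were sown in puddled paddy soil under flooding, then the diluted formulated compound was added to the water the same day at a predetermined dosage, and weed control was rated roughly 15 days afterwards in six stages (0–5).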

[6] = test system: Cyperus difformis (smallflower umbrella plant); test: as above; details: 500 g a.i/ha, pre-emergence treatment, about 15 days after treatment, score 0-5
Summary of the method: as §2

[7] = test system: Monochoria vaginalis (monochoria); test: as above; details: 500 g a.i/ha, pre-emergence treatment, about 15 days after treatment, score 0-5
Summary of the method: as §2

[8] = test system: Scirpus juncoides (bulrush); test: as above; details: 500 g a.i/ha, pre-emergence treatment, about 15 days after treatment, score 0-5
Summary of the method: as §2

[9] = test system: Echinochloa oryzicola (barnyard grass); test: as above; details: 500 g a.i/ha, pre-emergence treatment, about 15 days after treatment, score 0-5
Summary of the method: as §2

[10] = test system: other annual broad leaf weeds (Lindernia procumbens, Rotala indica, Elatine triandra); test: as above; details: 500 g a.i/ha, pre-emergence treatment, about 15 days after treatment, score 0-5
Summary of the method: as §2

| SMILES | Herbicidal effect Abutilon theophrast [1] | Herbicidal effect Amaranthus viridis [2] | Herbicidal effect Chenopodium album [3] | Phytotoxicity Corn [4] | Herbicidal effect Eleocharis acicularis [5] | Herbicidal effect Cyperus difformis [6] | Herbicidal effect Monochoria vaginalis [7] | Herbicidal effect Scirpus juncoides [8] | Herbicidal effect Echinochloa oryzicola [9] | Herbicidal effect Broadleaf weed [10] |
| --- | --- | --- | --- | --- | --- | --- | --- | --- | --- | --- |
| O=c1c(-c2cc(OCC3CCCCC3)c(Cl)cc2F)c(Cl)n2n1CCCC2 [Example 1-188] | 5 (Herbicidal effect/phytotoxicity was 90% or greater) | 5 (Herbicidal effect/phytotoxicity was 90% or greater) | 5 (Herbicidal effect/phytotoxicity was 90% or greater) | 0 (Herbicidal effect/phytotoxicity was 0% to 10%) | 5 (Herbicidal effect/phytotoxicity was 90% or greater) | 5 (Herbicidal effect/phytotoxicity was 90% or greater) | 5 (Herbicidal effect/phytotoxicity was 90% or greater) | 5 (Herbicidal effect/phytotoxicity was 90% or greater) | 5 (Herbicidal effect/phytotoxicity was 90% or greater) | 5 (Herbicidal effect/phytotoxicity was 90% or greater) |
| C=CCOc1cc(-c2c(Cl)n3n(c2=O)CCCC3)c(F)cc1Cl [Example 1-201] | 5 (Herbicidal effect/phytotoxicity was 90% or greater) | 5 (Herbicidal effect/phytotoxicity was 90% or greater) | 5 (Herbicidal effect/phytotoxicity was 90% or greater) | 2 (Herbicidal effect/phytotoxicity was 30% to 50%) | 5 (Herbicidal effect/phytotoxicity was 90% or greater) | 5 (Herbicidal effect/phytotoxicity was 90% or greater) | 5 (Herbicidal effect/phytotoxicity was 90% or greater) | 5 (Herbicidal effect/phytotoxicity was 90% or greater) | 5 (Herbicidal effect/phytotoxicity was 90% or greater) | 5 (Herbicidal effect/phytotoxicity was 90% or greater) |
| C#CCOc1cc(-c2c(Cl)n3n(c2=O)CCCC3)c(F)cc1F [Example 1-113] | 5 (Herbicidal effect/phytotoxicity was 90% or greater) | 5 (Herbicidal effect/phytotoxicity was 90% or greater) | 5 (Herbicidal effect/phytotoxicity was 90% or greater) | 3 (Herbicidal effect/phytotoxicity was 50% to 70%) | 5 (Herbicidal effect/phytotoxicity was 90% or greater) | 5 (Herbicidal effect/phytotoxicity was 90% or greater) | 5 (Herbicidal effect/phytotoxicity was 90% or greater) | 5 (Herbicidal effect/phytotoxicity was 90% or greater) | 5 (Herbicidal effect/phytotoxicity was 90% or greater) | 5 (Herbicidal effect/phytotoxicity was 90% or greater) |
| C=CCOc1cc(C)ccc1Oc1cc(-c2c(Cl)n3n(c2=O)CCCC3)c(F)cc1Cl [Example 3-42] | 5 (Herbicidal effect/phytotoxicity was 90% or greater) | 5 (Herbicidal effect/phytotoxicity was 90% or greater) | 5 (Herbicidal effect/phytotoxicity was 90% or greater) | 0 (Herbicidal effect/phytotoxicity was 0% to 10%) | – | – | – | – | – | – |
| C=CCOc1ccccc1Oc1cc(-c2c(Cl)n3n(c2=O)CCCC3)c(F)cc1Cl [Example 3-21] | 5 (Herbicidal effect/phytotoxicity was 90% or greater) | 5 (Herbicidal effect/phytotoxicity was 90% or greater) | 5 (Herbicidal effect/phytotoxicity was 90% or greater) | 1 (Herbicidal effect/phytotoxicity was 10% to 30%) | – | – | – | – | – | – |
| O=c1c(-c2cc([N+](=O)[O-])c(Cl)cc2F)c(C(F)(F)F)n2n1CCCC2 [Example 1-336] | 5 (Herbicidal effect/phytotoxicity was 90% or greater) | 5 (Herbicidal effect/phytotoxicity was 90% or greater) | 5 (Herbicidal effect/phytotoxicity was 90% or greater) | 0 (Herbicidal effect/phytotoxicity was 0% to 10%) | – | – | – | – | – | – |
| C=CCOC(=O)C=C(COc1cc(-c2c(Cl)n3n(c2=O)CCCC3)c(F)cc1Cl)OC (mixture of isomers) [Example 2-8] | 5 (Herbicidal effect/phytotoxicity was 90% or greater) | 5 (Herbicidal effect/phytotoxicity was 90% or greater) | 5 (Herbicidal effect/phytotoxicity was 90% or greater) | 2 (Herbicidal effect/phytotoxicity was 30% to 50%) | – | – | – | – | – | – |
| COC(=O)C=C(COc1cc(-c2c(Cl)n3n(c2=O)CCCC3)c(F)cc1Cl)OC (mixture of isomers) [Example 2-1] | 5 (Herbicidal effect/phytotoxicity was 90% or greater) | 5 (Herbicidal effect/phytotoxicity was 90% or greater) | 5 (Herbicidal effect/phytotoxicity was 90% or greater) | 1 (Herbicidal effect/phytotoxicity was 10% to 30%) | – | – | – | – | – | – |
| C=C(C)COC(=O)C=C(COc1cc(-c2c(Cl)n3n(c2=O)CCCC3)c(F)cc1Cl)OCC [Example 2-30] | 5 (Herbicidal effect/phytotoxicity was 90% or greater) | 5 (Herbicidal effect/phytotoxicity was 90% or greater) | 5 (Herbicidal effect/phytotoxicity was 90% or greater) | 0 (Herbicidal effect/phytotoxicity was 0% to 10%) | – | – | – | – | – | – |
| C#CC(C)Oc1cc(-c2c(Cl)n3n(c2=O)CCCC3)ccc1Cl (stereo not shown) [Example 1-67] | 5 (Herbicidal effect/phytotoxicity was 90% or greater) | 5 (Herbicidal effect/phytotoxicity was 90% or greater) | 5 (Herbicidal effect/phytotoxicity was 90% or greater) | 0 (Herbicidal effect/phytotoxicity was 0% to 10%) | – | – | – | – | – | – |
| CC1(COc2cc(-c3c(Cl)n4n(c3=O)CCCC4)c(F)cc2Cl)CC(c2ccc(Cl)cc2)=NO1 (stereo not shown) [Example 4-8] | 5 (Herbicidal effect/phytotoxicity was 90% or greater) | 5 (Herbicidal effect/phytotoxicity was 90% or greater) | 5 (Herbicidal effect/phytotoxicity was 90% or greater) | 2 (Herbicidal effect/phytotoxicity was 30% to 50%) | – | – | – | – | – | – |
| C=C(COc1cc(-c2c(Cl)n3n(c2=O)CCCC3)c(F)cc1Cl)c1cccc(Cl)c1 [Example 1-228] | 5 (Herbicidal effect/phytotoxicity was 90% or greater) | 5 (Herbicidal effect/phytotoxicity was 90% or greater) | 5 (Herbicidal effect/phytotoxicity was 90% or greater) | 1 (Herbicidal effect/phytotoxicity was 10% to 30%) | – | – | – | – | – | – |
| CC(C)Oc1cccc(Oc2cc(-c3c(Cl)n4n(c3=O)CCCC4)c(F)cc2Cl)c1 [Example 3-11] | 5 (Herbicidal effect/phytotoxicity was 90% or greater) | 5 (Herbicidal effect/phytotoxicity was 90% or greater) | 5 (Herbicidal effect/phytotoxicity was 90% or greater) | 0 (Herbicidal effect/phytotoxicity was 0% to 10%) | – | – | – | – | – | – |
| CC1(COc2cc(-c3c(Cl)n4n(c3=O)CCCC4)c(F)cc2Cl)CC(c2ccccc2)=NO1 (stereo not shown) [Example 4-1] | 5 (Herbicidal effect/phytotoxicity was 90% or greater) | 5 (Herbicidal effect/phytotoxicity was 90% or greater) | 5 (Herbicidal effect/phytotoxicity was 90% or greater) | 0 (Herbicidal effect/phytotoxicity was 0% to 10%) | – | – | – | – | – | – |
| C=CCOC(=O)C=C(COc1ccccc1Oc1cc(-c2c(Cl)n3n(c2=O)CCCC3)c(F)cc1Cl)OC [Example 3-24] | 5 (Herbicidal effect/phytotoxicity was 90% or greater) | 5 (Herbicidal effect/phytotoxicity was 90% or greater) | 5 (Herbicidal effect/phytotoxicity was 90% or greater) | 0 (Herbicidal effect/phytotoxicity was 0% to 10%) | – | – | – | – | – | – |
| O=c1c(-c2cc(OC3CCCC3)c(Cl)cc2F)c(Cl)n2n1CCCCC2 [Example 1-182] | 5 (Herbicidal effect/phytotoxicity was 90% or greater) | 5 (Herbicidal effect/phytotoxicity was 90% or greater) | 5 (Herbicidal effect/phytotoxicity was 90% or greater) | 1 (Herbicidal effect/phytotoxicity was 10% to 30%) | – | – | – | – | – | – |
